Measured values from PubChem BioAssay (NCI).
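All cell lines were grown in 96-well plates and treated with compound for 48 hours. GI50 = concentration required for 50% inhibition of growth. TGI marks complete inhibition of growth.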

How the values were obtained:
Test in all cases: inhibition of tumour cell growth, NCI panel, 48 h
NCI-H23 lung = test system: NCI-H23 lung
U251 CNS = test system: U251 CNS
SW-620 colon = test system: SW-620 colon
KM12 colon = test system: KM12 colon
OVCAR-3 ovarian = test system: OVCAR-3 ovarian
PC-3 prostate = test system: PC-3 prostate
M14 melanoma = test system: M14 melanoma
K-562 leukemia = test system: K-562 leukemia
LOX IMVI melanoma = test system: LOX IMVI melanoma
NCI-H460 lung = test system: NCI-H460 lung
COLO 205 colon = test system: COLO 205 colon
HCT-116 colon = test system: HCT-116 colon
HCT-15 colon = test system: HCT-15 colon
IGROV1 ovarian = test system: IGROV1 ovarian
A498 renal = test system: A498 renal
OVCAR-8 ovarian = test system: OVCAR-8 ovarian
TK-10 renal = test system: TK-10 renal
UACC-257 melanoma = test system: UACC-257 melanoma
OVCAR-4 ovarian = test system: OVCAR-4 ovarian
SK-OV-3 ovarian = test system: SK-OV-3 ovarian
RPMI-8226 leukemia = test system: RPMI-8226 leukemia
SF-539 CNS = test system: SF-539 CNS
SK-MEL-2 melanoma = test system: SK-MEL-2 melanoma
CCRF-CEM leukemia = test system: CCRF-CEM leukemia
CAKI-1 renal = test system: CAKI-1 renal
SK-MEL-28 melanoma = test system: SK-MEL-28 melanoma
HOP-62 NSCLC = test system: HOP-62 NSCLC
SNB-19 CNS = test system: SNB-19 CNS
SN12C renal = test system: SN12C renal
RXF 393 renal = test system: RXF 393 renal
NCI-H522 lung = test system: NCI-H522 lung
HT29 colon = test system: HT29 colon
A549 NSCLC = test system: A549 NSCLC
NCI/ADR-RES ovarian = test system: NCI/ADR-RES ovarian
SR leukemia = test system: SR leukemia
T-47D breast = test system: T-47D breast
MDA-MB-435 = test system: MDA-MB-435
SNB-75 CNS = test system: SNB-75 CNS
HS 578T breast = test system: HS 578T breast
SF-268 CNS = test system: SF-268 CNS
786-0 renal = test system: 786-0 renal
HL-60(TB) leukemia = test system: HL-60(TB) leukemia
ACHN renal = test system: ACHN renal
EKVX NSCLC = test system: EKVX NSCLC
HCC-2998 colon = test system: HCC-2998 colon
MOLT-4 leukemia = test system: MOLT-4 leukemia
HOP-92 NSCLC = test system: HOP-92 NSCLC
MCF7 breast = test system: MCF7 breast
UO-31 renal = test system: UO-31 renal
SK-MEL-5 melanoma = test system: SK-MEL-5 melanoma
UACC-62 melanoma = test system: UACC-62 melanoma
MALME-3M melanoma = test system: MALME-3M melanoma
DU-145 prostate = test system: DU-145 prostate
OVCAR-5 ovarian = test system: OVCAR-5 ovarian
BT-549 breast = test system: BT-549 breast
MDA-MB-231 breast = test system: MDA-MB-231 breast
SF-295 CNS = test system: SF-295 CNS

CCCCNC(=O)c1cc(NCc2cc(O)ccc2O)ccc1O
GI50 (NCI-H23 lung): 17.1 µM
TGI (NCI-H23 lung): 40.5 µM
GI50 (U251 CNS): 22.6 µM
TGI (U251 CNS): 59.1 µM
GI50 (SW-620 colon): 18.9 µM
TGI (SW-620 colon): 43.4 µM
GI50 (KM12 colon): 14.4 µM
TGI (KM12 colon): 57.7 µM
GI50 (OVCAR-3 ovarian): 4.8 µM
TGI (OVCAR-3 ovarian): 17.1 µM
GI50 (PC-3 prostate): 10.3 µM
TGI (PC-3 prostate): 27.4 µM
GI50 (M14 melanoma): 19.2 µM
TGI (M14 melanoma): 43.7 µM
GI50 (K-562 leukemia): 16.6 µM
TGI (K-562 leukemia): 75.2 µM
GI50 (LOX IMVI melanoma): 14.7 µM
TGI (LOX IMVI melanoma): 29.2 µM
GI50 (NCI-H460 lung): 47.3 µM
TGI (NCI-H460 lung): > 100 µM
GI50 (COLO 205 colon): 17 µM
TGI (COLO 205 colon): 36.9 µM
GI50 (HCT-116 colon): 18.8 µM
TGI (HCT-116 colon): 37.5 µM
GI50 (HCT-15 colon): 10.7 µM
TGI (HCT-15 colon): 32.4 µM
GI50 (IGROV1 ovarian): 26.1 µM
TGI (IGROV1 ovarian): 62.7 µM
GI50 (A498 renal): 41.1 µM
TGI (A498 renal): > 100 µM
GI50 (OVCAR-8 ovarian): 18.1 µM
TGI (OVCAR-8 ovarian): 68.8 µM
GI50 (TK-10 renal): 22.6 µM
TGI (TK-10 renal): 37.6 µM
GI50 (UACC-257 melanoma): 16.4 µM
TGI (UACC-257 melanoma): 32.4 µM
GI50 (OVCAR-4 ovarian): 12.3 µM
TGI (OVCAR-4 ovarian): 24.8 µM
GI50 (SK-OV-3 ovarian): 67.5 µM
TGI (SK-OV-3 ovarian): > 100 µM
GI50 (RPMI-8226 leukemia): 1.76 µM
TGI (RPMI-8226 leukemia): 7.85 µM
GI50 (SF-539 CNS): 4.16 µM
TGI (SF-539 CNS): 17.1 µM
GI50 (SK-MEL-2 melanoma): 22.8 µM
TGI (SK-MEL-2 melanoma): 65 µM
GI50 (CCRF-CEM leukemia): 0.873 µM
TGI (CCRF-CEM leukemia): 12.8 µM
GI50 (CAKI-1 renal): 10.8 µM
TGI (CAKI-1 renal): 23.8 µM
GI50 (SK-MEL-28 melanoma): 16.3 µM
TGI (SK-MEL-28 melanoma): 30.3 µM
GI50 (HOP-62 NSCLC): 71.8 µM
TGI (HOP-62 NSCLC): > 100 µM
GI50 (SNB-19 CNS): 41.4 µM
TGI (SNB-19 CNS): > 100 µM
GI50 (SN12C renal): 13.6 µM
TGI (SN12C renal): 29.5 µM
GI50 (RXF 393 renal): 8.53 µM
TGI (RXF 393 renal): 21.4 µM
GI50 (NCI-H522 lung): 1.32 µM
TGI (NCI-H522 lung): 2.94 µM
GI50 (HT29 colon): 21.5 µM
TGI (HT29 colon): 46.8 µM
GI50 (A549 NSCLC): 21.9 µM
TGI (A549 NSCLC): 48.2 µM
GI50 (NCI/ADR-RES ovarian): 25 µM
TGI (NCI/ADR-RES ovarian): > 100 µM
GI50 (SR leukemia): 5.35 µM
TGI (SR leukemia): > 100 µM
GI50 (T-47D breast): 6.39 µM
TGI (T-47D breast): 39.1 µM
GI50 (MDA-MB-435): 17.7 µM
TGI (MDA-MB-435): 39.5 µM
GI50 (SNB-75 CNS): 18.5 µM
TGI (SNB-75 CNS): > 100 µM
GI50 (HS 578T breast): 24.8 µM
TGI (HS 578T breast): > 100 µM
GI50 (SF-268 CNS): 10.3 µM
TGI (SF-268 CNS): 23.6 µM
GI50 (786-0 renal): 10.8 µM
TGI (786-0 renal): 23.2 µM
GI50 (HL-60(TB) leukemia): 2.06 µM
TGI (HL-60(TB) leukemia): 6.2 µM
GI50 (ACHN renal): 10.8 µM
TGI (ACHN renal): 22.7 µM
GI50 (EKVX NSCLC): 13.4 µM
TGI (EKVX NSCLC): 28.1 µM
GI50 (HCC-2998 colon): 17.6 µM
TGI (HCC-2998 colon): 35.5 µM
GI50 (MOLT-4 leukemia): 4.02 µM
TGI (MOLT-4 leukemia): 44.4 µM
GI50 (HOP-92 NSCLC): 6.81 µM
TGI (HOP-92 NSCLC): 21.7 µM
GI50 (MCF7 breast): 12.4 µM
TGI (MCF7 breast): 39.8 µM
GI50 (UO-31 renal): 2.82 µM
TGI (UO-31 renal): 12.1 µM
GI50 (SK-MEL-5 melanoma): 15.4 µM
TGI (SK-MEL-5 melanoma): 29.6 µM
GI50 (UACC-62 melanoma): 13.7 µM
TGI (UACC-62 melanoma): 27.1 µM
GI50 (MALME-3M melanoma): 11.8 µM
TGI (MALME-3M melanoma): 27.3 µM
GI50 (DU-145 prostate): 15.9 µM
TGI (DU-145 prostate): 29.6 µM
GI50 (OVCAR-5 ovarian): 17.4 µM
TGI (OVCAR-5 ovarian): 32 µM
GI50 (BT-549 breast): 3.24 µM
TGI (BT-549 breast): 13.5 µM
GI50 (MDA-MB-231 breast): 7.41 µM
TGI (MDA-MB-231 breast): 21.7 µM
GI50 (SF-295 CNS): 46.2 µM
TGI (SF-295 CNS): > 100 µM
